Assay results published in patent publication US20210070735A1, “RIP1 INHIBITORY COMPOUNDS AND METHODS FOR MAKING AND USING THE SAME” (Rigel Pharmaceuticals, Inc., priority 2019, published 2021).

Tests used:
RIPK1 = target: T1, RIPK1 (Homo sapiens, UniProt Q13546); assay: RIPK1 ADP-Glo biochemical kinase assay; conditions: 30 min at 30° C.
T1 sequence (Q13546 1-671): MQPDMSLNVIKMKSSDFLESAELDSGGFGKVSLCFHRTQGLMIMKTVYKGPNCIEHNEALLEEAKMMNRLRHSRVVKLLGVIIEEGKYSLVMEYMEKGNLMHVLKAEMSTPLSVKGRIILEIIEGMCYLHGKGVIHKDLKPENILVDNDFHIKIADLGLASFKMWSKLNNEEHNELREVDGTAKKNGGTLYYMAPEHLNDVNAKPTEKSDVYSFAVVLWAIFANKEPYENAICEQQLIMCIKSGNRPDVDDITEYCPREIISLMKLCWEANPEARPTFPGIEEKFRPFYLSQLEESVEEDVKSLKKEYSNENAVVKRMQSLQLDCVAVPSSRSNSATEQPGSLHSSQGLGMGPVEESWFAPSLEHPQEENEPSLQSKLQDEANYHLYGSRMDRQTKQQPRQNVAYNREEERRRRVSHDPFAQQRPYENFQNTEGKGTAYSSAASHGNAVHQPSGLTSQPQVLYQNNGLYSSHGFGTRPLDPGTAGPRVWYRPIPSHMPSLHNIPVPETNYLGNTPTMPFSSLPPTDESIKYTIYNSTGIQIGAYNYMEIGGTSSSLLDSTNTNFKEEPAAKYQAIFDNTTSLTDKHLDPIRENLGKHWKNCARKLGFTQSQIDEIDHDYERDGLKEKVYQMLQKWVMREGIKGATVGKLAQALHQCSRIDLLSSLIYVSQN
Experimental: The final reaction volume was 5.0 μl.
Adding 5 μl of ADP-Glo™ terminated the reaction.

murine RIP1 = target: T2, murine RIP1 (Mus musculus, UniProt Q60855); assay: L929 cell necroptosis assay (TNFa + zVAD, CellTiter-Glo); type: cell-based
T2 construct: U937 and L929 cells were obtained from the American Type Culture Collection; host or cells: L929
T2 sequence (Q60855 1-656): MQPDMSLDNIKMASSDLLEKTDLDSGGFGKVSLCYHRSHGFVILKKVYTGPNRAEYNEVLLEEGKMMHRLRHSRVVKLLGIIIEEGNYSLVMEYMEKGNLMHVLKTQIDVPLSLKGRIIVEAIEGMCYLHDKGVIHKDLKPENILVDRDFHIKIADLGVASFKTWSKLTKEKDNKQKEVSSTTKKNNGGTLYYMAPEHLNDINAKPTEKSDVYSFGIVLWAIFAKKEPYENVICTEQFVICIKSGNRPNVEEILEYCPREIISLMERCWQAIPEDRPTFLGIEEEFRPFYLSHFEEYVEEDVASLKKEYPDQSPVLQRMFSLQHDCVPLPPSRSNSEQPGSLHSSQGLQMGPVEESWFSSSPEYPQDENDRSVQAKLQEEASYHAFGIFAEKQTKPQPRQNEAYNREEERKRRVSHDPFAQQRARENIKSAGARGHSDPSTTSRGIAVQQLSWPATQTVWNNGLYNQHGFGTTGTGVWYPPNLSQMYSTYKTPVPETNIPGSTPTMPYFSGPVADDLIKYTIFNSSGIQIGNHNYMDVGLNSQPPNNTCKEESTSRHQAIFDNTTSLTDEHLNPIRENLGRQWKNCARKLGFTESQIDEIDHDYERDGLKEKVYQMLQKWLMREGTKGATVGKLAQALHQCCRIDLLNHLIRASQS
Experimental: (§1) In this example, U937 and L929 cells were exposed to compounds of the present disclosure and a cell necroptosis assay was conducted to evaluate the compounds' activity against human RIP1 and murine RIP1.
(§2) U937 and L929 cells were obtained from the American Type Culture Collection (Manassa, Va., USA). Both cells were maintained in logarithmic growth phase in complete RPMI 1640 media (Sigma, ST Louis, Mo., USA) supplemented with 10% fetal bovine serum (Sigma, ST Louis, Mo., USA) at 37° C. with 5% CO2. For necroptosis assay, L929 cells were plated for 18 h in 100 µL/well medium at 10K cells/well in Costar 96-well black clear-bottom plates (Fisher Scientific, Hampton, N.H., USA); U937 cells were plated on the day of the assay in 50 µL/well medium containing 60 uM zVAD-fmk (Lonza, Basel, Switzerland) at 50K cells/well. Medium from L929 cells were removed from the 96-well plates and replaced with 50 µL/well new medium containing 40 uM zVAD-fmk. Each compound of the present disclosure evaluated in this example was serially diluted in DMSO from 2.5 mM in 4-fold dilutions, and then diluted 1:125 in complete medium. 50 µL/well 2× of the compound was then added to the cells in the plates. The cells were pre-incubated with the compound for 1 hour at 37° C. with 5% CO2 and before addition of 10 µL/well 11×TNFa (Peprotech, Rocky Hill, N.J., USA) to give a final concentration of 2 ng/mL for TNFa. The relative amount of necroptosis cells was determined by luminescent using a Wallac Victor2 Luminometer (PerkinElmer, Waltham, Mass., USA) and a CellTiter-Glo® Luminescent Cell Viability Reagent Assay (Promega, Madison, Wis., USA) added per manufacturer instructions after 18 hours of TNFa stimulation at 37° C. with 5% CO2.Results from this example are summarized in Table 2. This example establishes that embodiments of the compounds described herein have unexpectedly potent activity against human RIP1 and murine RIP1, which allows their assessment in in vivo mouse models of disease.

human RIP1 = target: T3, human RIP1 (Homo sapiens, UniProt Q13546); assay: U937 cell necroptosis assay (TNFa + zVAD, CellTiter-Glo); type: cell-based; conditions: U937 Zvad TNF CTG Recovery, U937 cells, TNFa 2 ng/mL + zVAD-fmk, 18 hours
T3 construct: U937 and L929 cells were obtained from the American Type Culture Collection; host or cells: U937
T3 sequence (Q13546 1-671): T1 sequence (Q13546 1-671)
Experimental: as §1, §2

SMILES	IC50 (RIPK1) [nM]	IC50 (murine RIP1) [nM]	IC50 (human RIP1) [nM]
CN1C(=O)[C@@H](NC(=O)c2n[nH]c(Cc3ccccc3)n2)CCc2ccc(C#Cc3cccnc3)cc21 [Compound I-18, (S)-5-Benzyl-N-(1-methyl-2-oxo-8-(pyridin-3-ylethynyl)-2,3,4,5-tetrahydro-1H-benzo[b]azepin-3-yl)-1H-1,2,4-triazole-3-carboxamide]	23.4	5.9	3.2
CN1C(=O)[C@@H](NC(=O)c2n[nH]c(Cc3ccccc3)n2)CCc2ccc(C#CC(C)(C)C)cc21 [Compound I-21, (S)-5-Benzyl-N-(8-(3,3-dimethylbut-1-yn-1-yl)-1-methyl-2-oxo-2,3,4,5-tetrahydro-1H-benzo[b]azepin-3-yl)-1H-1,2,4-triazole-3-carboxamide]	62.4	25.3	13.4
CN1C(=O)[C@@H](NC(=O)c2cc(Oc3ccccc3)ccn2)CCc2ccc(C#CC3(O)COC3)cc21 [Compound I-22, (S)—N-(8-((3-hydroxyoxetan-3-yl)ethynyl)-1-methyl-2-oxo-2,3,4,5-tetrahydro-1H-benzo[b]azepin-3-yl)-4-phenoxypicolinamide]	34.2	8.2	0.8
CN1C(=O)[C@@H](NC(=O)c2ccn(Cc3ccccc3)n2)CCc2ccc(N3CC4(CCOCC4)C3)cc21 [Compound I-32, (S)-1-Benzyl-N-(1-methyl-2-oxo-8-(7-oxa-2-azaspiro[3.5]nonan-2-yl)-2,3,4,5-tetrahydro-1H-benzo[b]azepin-3-yl)-1H-pyrazole-3-carboxamide]	38.8	182	2.7
CN1C(=O)[C@@H](NC(=O)c2ccn(Cc3ccccc3)n2)CCc2ccc(C#CC(C)(C)C)cc21 [Compound I-33, (S)-1-Benzyl-N-(8-(3,3-dimethylbut-1-yn-1-yl)-1-methyl-2-oxo-2,3,4,5-tetrahydro-1H-benzo[b]azepin-3-yl)-1H-pyrazole-3-carboxamide]	54.6	30	7.6
CN1C(=O)[C@@H](NC(=O)n2cc(Cc3ccc(F)cc3)cn2)CCc2ccc(C#CC3(O)CCOCC3)cc21 [Compound I-34, (S)-4-(4-Fluorobenzyl)-N-(8-((4-hydroxytetrahydro-2H-pyran-4-yl)ethynyl)-1-methyl-2-oxo-2,3,4,5-tetrahydro-1H-benzo[b]azepin-3-yl)-1H-pyrazole-1-carboxamide]	26	5.9	0.4
CC(C)(O)C#Cc1ccc2c(c1)NC(=O)[C@@H](NC(=O)c1cc(Oc3ccc(F)cc3)ccn1)CC2 [Compound I-35, (S)-4-(4-Fluorophenoxy)-N-(8-(3-hydroxy-3-methylbut-1-yn-1-yl)-2-oxo-2,3,4,5-tetrahydro-1H-benzo[b]azepin-3-yl)picolinamide]	73	1790	552
[2H]C([2H])([2H])N1C(=O)[C@@H](NC(=O)n2cc(Cc3ccc(F)cc3)cn2)CCc2ccc(C#CC(C)(C)O)cc21 [Compound I-36, 4-(4-Fluorobenzyl)-N-(8-(3-hydroxy-3-methylbut-1-yn-1-yl)-1-(methyl-d)-2-oxo-2,3,4,5-tetrahydro-1H-benzo[b]azepin-3-yl)-1H-pyrazole-1-carboxamide]	39.2	4.5	0.5
CN1CCN(C(C)(C)C#Cc2ccc3c(c2)N(C)C(=O)[C@@H](NC(=O)c2cc(Oc4ccccc4)ccn2)CC3)CC1 [Compound I-37, (S)—N-(1-Methyl-8-(3-methyl-3-(4-methylpiperazin-1-yl)but-1-yn-1-yl)-2-oxo-2,3,4,5-tetrahydro-1H-benzo[b]azepin-3-yl)-4-phenoxypicolinamide]	12.7	1940	21
